The term half-life denotes the time in which the quantity being followed falls by half. Broadly, the EC50 is the concentration giving half of the maximal effect.

Where a SMILES comes first, the peptide text is derived from it. Bridges are numbered along the chain shown (N, C = ends). [ ]: non-standard residue; d: D form. Nle = CCCC[C@H](N)C(=O)O Bounds are passed on as bounds.

Data set [1] in a line: Surrogate Activity-Based Plasma Stability Assay (calcium flux EC50 after incubation with 5% rat plasma). Conditions: not told. In general terms: A change in cytosolic calcium serves as a functional read-out for many receptors and channels.
Experimental: The slope of this line, k, was determined by linear regression (Microsoft Excel). • Stability half-life was then calculated by the formula, t ½=0.693÷k Surrogate Activity-Based Plasma Stability Assay:
The calcium flux protocol described above was followed, with the following changes. The peptides were also incubated with 5% rat plasma (Bioreclamation # [sequence]-M, Na Heparin-treated). Readings were taken at time points t0 and t24 hrs, after incubation in a 37° C. tissue culture incubator. Peptide plasma half-life in minutes was estimated by calculating the following:
2) Calculate slope of value above and
In another data set the target is T1, hAPJ (Homo sapiens, UniProt P35414).
T1 sequence (P35414 1-380): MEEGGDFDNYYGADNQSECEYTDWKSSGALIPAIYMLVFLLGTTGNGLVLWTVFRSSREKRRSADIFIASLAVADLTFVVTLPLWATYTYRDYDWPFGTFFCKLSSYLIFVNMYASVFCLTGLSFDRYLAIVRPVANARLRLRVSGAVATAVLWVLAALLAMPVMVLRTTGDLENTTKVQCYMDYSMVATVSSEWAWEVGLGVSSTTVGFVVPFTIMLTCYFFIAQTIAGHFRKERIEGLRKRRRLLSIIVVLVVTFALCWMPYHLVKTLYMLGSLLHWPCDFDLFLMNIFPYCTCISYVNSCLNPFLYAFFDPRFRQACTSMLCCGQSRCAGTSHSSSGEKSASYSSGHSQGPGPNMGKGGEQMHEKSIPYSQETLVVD
The experiment in a line: hAPJ Calcium Flux Assay. It counts as cell-based.

Experimental for hAPJ: Chem-5 APJ stable cells (Millipore # HTS068C) were plated in 384-well format with 10,000 cells/well in 25 ul growth media, then grown 24 hours in a 37° C. tissue culture incubator. One hour before the assay, 25 ul/well FLIPR Calcium 4 dye (Molecular Devices R8142) with 2.5 mM probenecid was added, and cells were incubated one hour in a 37° C. tissue culture incubator. Peptides were solubilized in HBSS, HEPES & 0.1% BSA buffer, and serially-diluted 10-fold, from 50 uM to 5 pM, in triplicate. FLIPR Tetra was used to add peptide to the cells with dye (1:5, for final peptide concentrations ranging from 10 uM to 1 pM). FLIPR dye inside the cells emitted fluorescence after binding to calcium, while fluorescence from outside the cells was masked. Fluorescence was measured using 470-495 excitation and 515-575 emission wavelengths on the FLIPR Tetra. Readings were done for 3 minutes total, beginning 10 seconds before the peptide addition. Maximum-minimum values were calculated and plotted for each peptide concentration, and Graph Pad prism software was used to calculate EC50 values at the curve inflection points, for calcium flux stimulation by peptides.

For the compound `CCCC[C@@H]1NC(=O)[C@@H]2CCCN2C(=O)CNC(=O)[C@H](CCCCN)NC(=O)[C@H](Cc2ccccc2)NC(=O)[C@@H]2CSSC[C@H](NC1=O)C(=O)N[C@@H](Cc1ccccc1)C(=O)NCC(=O)NCC(=O)N[C@@H](CCC(N)=O)C(=O)N[C@@H](CCCNC(=N)N)C(=O)N1CCC[C@H]1C(=O)N[C@@H](CCCNC(=N)N)C(=O)N[C@@H](CC(C)C)C(=O)N2` [Example 7, Q-R-P-R-L-C-F-K-G-P-Nle-C-F-G-G] (cyclo(CFGGQRPRLCFKGP[Nle]); disulfide 1-10), the half-life in data set [1] is more than 16.7 h. Moreover, the half-maximal effective concentration (EC50) on hAPJ came out at 90.9 nM.

The values above are taken from patent US9982017B2, “Synthetic apelin mimetics for the treatment of heart failure” (priority 2012, dated 2018).
